This experiment concerns the target T1, Chymase (Homo sapiens, UniProt P23946).
T1 sequence (P23946 22-247): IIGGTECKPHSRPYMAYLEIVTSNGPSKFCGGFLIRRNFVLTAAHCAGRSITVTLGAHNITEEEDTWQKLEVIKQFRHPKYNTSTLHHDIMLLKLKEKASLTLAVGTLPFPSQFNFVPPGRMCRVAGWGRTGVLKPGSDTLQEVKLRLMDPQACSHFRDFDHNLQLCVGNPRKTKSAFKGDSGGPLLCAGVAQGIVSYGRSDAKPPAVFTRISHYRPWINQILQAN
The experiment can be described thus: In vitro Assay for Inhibition of Chymase. The experiment is classed as biochemical. The settings on record: 500 pM chymase, 100 nM rhodamine 110 peptide substrate, 1 hour at 28° C., fluorescence. How it is done: In vitro Assay for Inhibition of Chymase
Chymase assays were performed in a total volume of 15 μL in Corning black opaque 384-well microtiter plates with a non-binding surface (Coming, N.Y.). The assay buffer was comprised of 20 mM Tris HCl pH 8.0, 50 mM NaCl, 0.01% CHAPS. The test compounds were serially diluted 3-fold with neat DMSO in a 96-well polypropylene plate from a 10 mM DMSO stock to give the 10 point dose response curve. 3 μL of the resulting DMSO solution were transferred to a 384-well polypropylene plate in duplicate, and 37 μL of assay buffer was added. Chymase was added to the assay plate in 3 uL of assay buffer followed by 2 uL of the appropriate compound dilution using a PlateMate Plus (Matrix Technologies Corp., Hudson, N.H.). The reaction was initiated by the addition of 10 uL rhodamine 110, bis-(succinoyl-L-alanyl-L-alanyl-L-prolyl-L-phenylalanylamide) (American Peptides, Sunnyvale, Calif.) in assay buffer containing 150 μM tris(2-carboxyethyl)phosphine (TCEP, Pierce Chemical, Rockford, Ill.) using a Multidrop (Thermo Electron Corp., Waltham, Mass.). Final assay concentrations were 500 pM chymase, 100 nM substrate, 100 μM TCEP, and 1% DMSO. The plates were incubated at 28° C. and 80% humidity for 1 hour, at which time the fluorescence was read on a Viewlux 1430 Microplate Imager (Perkin Elmer Life Sciences, Boston, Mass.) with 485 nm excitation, 530 nm emission, and a fluorescein dichroic mirror. The percentage of control values were calculated relative to assay blanks containing complete reaction minus chymase and a 100% control containing assay buffer with 1% DMSO in place of compound. IC50 values were obtained by fitting the data using XLFit4 (IDBS Software).

The results in this text go back to patent US8377949B2, “Quinazolinedione chymase inhibitors” (Boehringer Ingelheim International GmbH, priority 2007, dated 2013).

As for `Cc1cccc2c1c(Cn1c(=O)n(CC3(CC(=O)O)CCCCC3)c(=O)c3ccccc31)cn2C` [{1-[1-(1,4-Dimethyl-1H-indol-3-ylmethyl)-2,4-dioxo-1,4-dihydro-2H-quinazolin-3-ylmethyl]-cyclohexyl}-acetic acid], the half-maximal inhibitory concentration (IC50) (commonly the concentration that inhibits the measured activity by half) was 3 nM. The compound `Cc1cc(C)c2c(Cn3c(=O)n(C4(CC(=O)O)CCCCC4)c(=O)c4ccccc43)nsc2c1` [{1-[1-(4,6-Dimethyl-1,2-benzisothiazol-3-ylmethyl)-2,4-dioxo-1,4-dihydro-2H-quinazolin-3-yl]-cyclohexyl}-acetic acid] came in with an IC50 of 4 nM. This IC50 and that of the compound before are within 1.5-fold of each other.
